In series [1] the test system is amphetamine-induced hyperactivity. Kind of series: Amphetamine-induced hyperactivity in c57bl6/j mice. The note with it: 3 and 10 mg/kg i.p., amphetamine 3 mg/kg s.c. The class given is in vivo. As to the method: To the extent that ethanol-induced hyperactivity is mediated, at least partially, by the dopaminergic system, additional experiments were designed to evaluate whether the compound of formula (A) attenuates the hyperactivity induced by amphetamine, an indirect dopamine agonist.
Locomotor activity was measured with a Hamilton Kinder motor monitor infrared beam apparatus equipped with a SmartFrame cage rack throughout which basic movements were recorded. These experiments were conducted using a between subject design. Sessions started when 8-10-week old c57bl6/j mice were located in the test cages and they lasted for 180 min. Amphetamine (3 mg/kg, s.c.) was administered 60 min after the beginning of the session. The compound of formula (A) (1,3,10 mg/kg, i.p.) or vehicle was administered 15 min prior to amphetamine and locomotor activity was measured for an additional 120 min. The average of basic movements recorded for 60 min after amphetamine was calculated for each animal. Data were analyzed with one-way analysis of variance (ANOVA) using Graph Pad.

A short description of series [2]: Pharmacokinetic study in dogs. In kind it is in vivo, male Beagle dog. The note with it: dog; for Vd: iv, 1 mg/kg. As to the method: Male Beagle Canines 11-15 kilograms in body weight were used. Three animals received a bolus oral dose of the compound via an oral gavage at a dose of 5 mg/kg. Three animals received a bolus intravenous dose of the compound at a dose of 1 mg/kg in the right cephalic vein. Blood sampling of the cephalic or jugular veins followed dosing over a time course. Blood samples consisted of 4-5 mL samples taken from the vein into heparinized blood collection tubes containing Li Heparin. These blood samples were then centrifuged. The plasma was retained and kept frozen in a −40° C. freezer until processed for analysis. The time course for sampling was as follows: 0.25, 0.5, 1, 2, 4, 8, and 24 hours for oral administration and 0.08, 0.25, 0.5, 1, 2, 4, 8, and 24 hours for intravenous administration. These samples were analyzed by LC-MS/MS. The LC-MS/MS data was analyzed using a non-compartmental model with the software package WinNonlin Version 4.0.1 (Pharsight, Palo Alto, Calif.). All figures plasma level versus time figures were created using GraphPad Prism 4 (San Diego, Calif.).
The compound of formula (A) was formulated in 20% hydroxypropyl-β-cyclodextrine. Oral and intravenous pharmacokinetic parameters for the compound of formula (A) were determined in male Beagles with results as shown in FIG. 3 and Table 3 below.

In series [3] the target is MTP (Homo sapiens, UniProt P55157). Kind of series: MTP assay (triglyceride transfer between vesicles). The class given is biochemical. The note with it: read-out: MTP pIC50 (converted). The procedure:
MTP activity was measured using an assay similar to one described by J. R. Wetterau and D. B. Zilversmit in Chemistry and Physics of Lipids (1985) 38, 205-222.
In order to prepare the donor and acceptor vesicles, the appropriate lipids in chloroform were put into a glass test tube and dried under a stream of nitrogen. A buffer containing 15 mM Tris-HCl (pH 7.5), 1 mM ethylenediamine tetra-acetic acid, 40 mM NaCl, 0.02% NaN3 (assay buffer) was added to the dried lipid. The mixture was vortexed briefly and the lipids were then allowed to hydrate for 20 minutes on ice. Vesicles were then prepared by bath sonication (using a Branson 2200 device) at room temperature for at most 15 minutes. Butylated hydroxytoluene was included in all vesicle preparations at a concentration of 0.1%. The lipid transfer assay mixture contained donor vesicles (40 nmole phosphatidylcholine, 7.5 mole % cardiolipin and 0.25 mole % glycerol tri[1-^14C]-oleate), acceptor vesicles (240 nmol phosphatidylcholine) and 5 mg bovine serum albumin in a total volume of 675 μl in a 1.5 ml microcentrifuge tube. Test compound was added dissolved in dimethylsulfoxide (0.13% final concentration). After 5 minutes of pre-incubation at 37° C., the reaction was started by the addition of MTP in 100 μl of a dialysis buffer. The reaction was stopped by the addition of 400 μl […] (DEAE)-52 cellulose (Sephadex) pre-equilibrated in 15 mM Tris-HCl (pH 7.5), 1 mM ethylenediamine tetra-acetic acid and 0.02% NaN3 (1:1 volume/volume). The mixture was agitated for 4 minutes and centrifuged for 2 minutes at maximum speed in an Eppendorf centrifuge (4° C.) to pellet the DEAE-52-bound donor vesicles. An aliquot of the supernatant containing the acceptor liposomes was counted and the [^14C]-counts were used to calculate the percent triglyceride transfer from donor to acceptor vesicles.
Representative compounds of the present invention were measured for binding against the MTP receptor, as described above, with results as listed in Table 2 below.

Series [4] addresses T1, NPY Y2 receptor (Homo sapiens, UniProt P49146).
T1 sequence (P49146 1-381): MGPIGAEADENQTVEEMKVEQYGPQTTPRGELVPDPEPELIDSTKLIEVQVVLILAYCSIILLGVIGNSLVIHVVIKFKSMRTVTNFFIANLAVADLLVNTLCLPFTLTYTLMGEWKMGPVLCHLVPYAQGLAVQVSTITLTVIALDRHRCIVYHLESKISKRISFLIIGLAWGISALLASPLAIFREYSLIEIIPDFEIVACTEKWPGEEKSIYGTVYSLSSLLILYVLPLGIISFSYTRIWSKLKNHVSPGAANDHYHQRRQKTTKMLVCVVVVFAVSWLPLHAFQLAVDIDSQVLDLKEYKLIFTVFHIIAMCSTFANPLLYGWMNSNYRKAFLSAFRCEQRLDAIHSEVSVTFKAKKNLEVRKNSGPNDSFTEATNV
Kind of series: CEREP binding panel, NPY Y2. As to the method: The selectivity of the compound of formula (A) was further evaluated in a large variety of ion-channels, transporters and receptor-binding assays including the Y1 receptor subtype. These assays were performed by CEREP (Celles L'Evescault, France; www.cere.com<http//www.cerea.com>). Selectivity vs the Y5 receptor subtype was evaluated as described in Bonaventure, P., D. Nepomuceno, C. Mazur, B. Lord, D. A. Rudolph, J. A. Jablonowski, N. I. Carruthers and T. W. Lovenberg, J Pharmacol Exp Ther. 2004, 308, 1130.
The compound of formula (A) was assayed by binding in a panel of 50 receptors, ion channels and transporters assays (CEREP) including adenosine (A1,A2A,A3), adrenergic (α1, α2, β1), angiotensin (AT1), dopamine (D1, D2), bradykinin (B2), cholecystokinin (CCKA), galanin (GAL2), melatonin ML1), muscarinic (M1, M2, M3), neurotensin (NTS), neurokinin (NK2, NK3), NPY (Y1, Y2) opiate (m, k, d), serotonin (5-HT1A, 5-HT1B, 5-HT2A, 5-HT3, 5-HT5A, 5-HT6, 5-HT7), somatostatin, vasopressin (V1a), norepinephrine transporter, dopamine transporter and ion channels (sodium, calcium, potassium and chloride).

[5] abbreviates: male, beagle, plasma, IV 1 mg/kg.
Where [6] appears, read: male, beagle, plasma, PO 5 mg/kg.

Like-named read-outs stand apart in the source and are kept apart here.

Sequence of MTP (P55157 19-894, species assumed): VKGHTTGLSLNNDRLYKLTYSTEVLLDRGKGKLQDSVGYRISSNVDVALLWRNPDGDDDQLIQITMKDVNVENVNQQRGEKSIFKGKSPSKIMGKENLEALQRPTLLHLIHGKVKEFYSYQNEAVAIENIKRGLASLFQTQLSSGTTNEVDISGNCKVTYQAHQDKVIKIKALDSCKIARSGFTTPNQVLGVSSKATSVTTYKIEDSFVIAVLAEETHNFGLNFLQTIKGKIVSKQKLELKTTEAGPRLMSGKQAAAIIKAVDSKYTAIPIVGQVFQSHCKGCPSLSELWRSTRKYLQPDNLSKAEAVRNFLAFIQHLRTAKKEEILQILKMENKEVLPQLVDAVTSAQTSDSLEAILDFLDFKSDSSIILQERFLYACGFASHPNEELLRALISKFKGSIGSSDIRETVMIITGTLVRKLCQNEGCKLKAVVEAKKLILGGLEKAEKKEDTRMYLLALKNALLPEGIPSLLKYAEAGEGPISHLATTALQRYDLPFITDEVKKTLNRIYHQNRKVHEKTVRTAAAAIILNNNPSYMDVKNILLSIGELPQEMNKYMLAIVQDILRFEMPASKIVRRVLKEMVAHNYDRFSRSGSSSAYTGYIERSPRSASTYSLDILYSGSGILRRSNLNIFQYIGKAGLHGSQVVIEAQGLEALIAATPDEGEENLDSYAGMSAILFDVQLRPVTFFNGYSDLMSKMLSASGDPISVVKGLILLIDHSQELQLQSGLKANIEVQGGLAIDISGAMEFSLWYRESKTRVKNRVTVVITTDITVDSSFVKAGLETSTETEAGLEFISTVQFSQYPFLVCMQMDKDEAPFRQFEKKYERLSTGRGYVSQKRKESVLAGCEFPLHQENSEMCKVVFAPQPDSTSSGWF
Sequence of MTP (P07237 18-508 partner, species assumed): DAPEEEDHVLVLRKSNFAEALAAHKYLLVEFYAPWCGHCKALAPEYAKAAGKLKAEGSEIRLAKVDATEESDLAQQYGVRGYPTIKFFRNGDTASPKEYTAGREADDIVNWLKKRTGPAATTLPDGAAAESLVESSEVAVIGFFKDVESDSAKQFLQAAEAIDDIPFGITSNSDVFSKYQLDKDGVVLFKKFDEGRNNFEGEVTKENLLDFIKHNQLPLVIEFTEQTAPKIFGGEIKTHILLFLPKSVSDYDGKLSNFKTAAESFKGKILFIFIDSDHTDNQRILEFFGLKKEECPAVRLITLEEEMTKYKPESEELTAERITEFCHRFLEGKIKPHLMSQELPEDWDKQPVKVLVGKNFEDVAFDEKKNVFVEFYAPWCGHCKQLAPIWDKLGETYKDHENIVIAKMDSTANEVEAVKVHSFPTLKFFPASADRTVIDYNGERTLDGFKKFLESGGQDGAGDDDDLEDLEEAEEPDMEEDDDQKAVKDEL

On to `CCN(CC)C(=O)C(c1ccccc1)N1CCN(c2ccc(NC(=O)c3ccccc3-c3cccnc3)cc2F)CC1` (racemic) [Cmpd (A), N-{4-[4-(Diethylcarbamoyl-phenyl-methyl)-piperazin-1-yl]-3-fluoro-phenyl}-2-pyridin-3-yl-benzamide], for which, in series [1], the “effect on amphetamine-induced hyperactivity” value is “blocked amphetamine-induced hyperactivity”. In series [2] (IV 1 mg/kg), this molecule displayed a Lambda z of 1.47 h⁻¹. In series [2] (PO 5 mg/kg), this molecule came in with a Lambda z of 0.71 h⁻¹. For the same molecule, the Vd in series [2] (male, beagle, plasma, IV 1 mg/kg, read-out: VSS) is 0.57 L/kg. Also, in series [2] (male, beagle, plasma, IV 1 mg/kg, read-out: Vz), the Vd is 0.64 L/kg. For the same molecule, in series [2] (setting [5]), the AUC(0-inf) came out at 1.89 µM·h, the AUC(0-t) turned out to be 0.89 µM·h, the C0 was found to be 6.24 µM and the MRT inf is 36.6 min. In series [2] (setting [5]), this molecule showed a clearance of 15.8 mL/min/kg and a half-life of 28.2 min. In series [2] (setting [6]), this molecule yielded an AUC(0-inf) of 2.79 µM·h, an AUC(0-t) of 2.73 µM·h, a Cmax of 1.55 µM and a mean residence time (MRT inf) of 103 min. Moreover, in series [2] (setting [6]), the Tmax is 49.8 min and the half-life is 59.4 min. The IC50 in series [3] is 794 nM. This molecule also displayed an inhibition at 1 µM in series [4] of 100%.

The AUC(0-inf) is the area under the concentration-time curve extrapolated to infinity. What is called AUC(0-t) is exposure summed from dosing to a finite time, without extrapolation to infinity. What is called MRT inf is the average time that molecules of a dose stay in the body. Broadly, the clearance is the volume of plasma or blood freed of the substance per unit of time. The low end stands for a low capacity for elimination, the high end for a high capacity for elimination. By half-life is commonly meant the time in which the quantity being followed falls by half. Low values mean rapid decline, high ones slow decline. As usually defined, the Cmax is the maximum level reached in the sampled fluid or tissue. As usually defined, the Tmax is the time at which the peak concentration occurs. For orientation: inhibition means the percentage by which the read-out fell short of the control. A lower inhibition goes with a response near the control.

The values above are taken from patent US8338426B2, “Piperazinyl derivatives useful as modulators of the neuropeptide Y2 receptor” (Janssen Pharmaceutica NV, priority 2007, dated 2012).
